In PubChem BioAssay AID1963854 (Molecular Pharmacology Branch, DTP, NCI, 2024):

Tested on: 186277-243-T-J2-PDC complex spheroid viability
Experiment: Anticancer human tumor 186277-243-T-J2-PDC patient-derived colon adenocarcinoma cell line growth inhibition [POLQ]
Conditions: for IC50: curve of first compound; for viability, T/C: stronger effect = lower value
In short: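 PDC + HUVEC + MSC complex spheroids; POLQ inhibitors ± partner drugs; top conc. at/near clinical Cmax, else 10 microM (SN-38 1 microM), half-log dilutions; 37 degrees C, 5% CO2.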

[1] = second compound 0.0316 µM, first compound 0.0316 µM
[2] = second compound 0.0316 µM, first compound 0.1 µM
[3] = second compound 0.0316 µM, first compound 0.316 µM
[4] = second compound 0.0316 µM, first compound 1 µM
[5] = second compound 0.0316 µM, first compound 3.16 µM
[6] = second compound 0.0316 µM, first compound 10 µM
[7] = second compound 0.1 µM, first compound 0.0316 µM
[8] = second compound 0.1 µM, first compound 0.1 µM
[9] = second compound 0.1 µM, first compound 0.316 µM
[10] = second compound 0.1 µM, first compound 1 µM
[11] = second compound 0.1 µM, first compound 3.16 µM
[12] = second compound 0.1 µM, first compound 10 µM
[13] = second compound 0.316 µM, first compound 0.0316 µM
[14] = second compound 0.316 µM, first compound 0.1 µM
[15] = second compound 0.316 µM, first compound 0.316 µM
[16] = second compound 0.316 µM, first compound 1 µM
[17] = second compound 0.316 µM, first compound 3.16 µM
[18] = second compound 0.316 µM, first compound 10 µM
[19] = second compound 1 µM, first compound 0.0316 µM
[20] = second compound 1 µM, first compound 0.1 µM
[21] = second compound 1 µM, first compound 0.316 µM
[22] = second compound 1 µM, first compound 1 µM
[23] = second compound 1 µM, first compound 3.16 µM
[24] = second compound 1 µM, first compound 10 µM
[25] = second compound 3.16 µM, first compound 0.0316 µM
[26] = second compound 3.16 µM, first compound 0.1 µM
[27] = second compound 3.16 µM, first compound 0.316 µM
[28] = second compound 3.16 µM, first compound 1 µM
[29] = second compound 3.16 µM, first compound 3.16 µM
[30] = second compound 3.16 µM, first compound 10 µM
[31] = second compound 10 µM, first compound 0.0316 µM
[32] = second compound 10 µM, first compound 0.1 µM
[33] = second compound 10 µM, first compound 0.316 µM
[34] = second compound 10 µM, first compound 1 µM
[35] = second compound 10 µM, first compound 3.16 µM
[36] = second compound 10 µM, first compound 10 µM
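Further: spheroids exposed to compounds for seven days.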
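Wherever viability, T/C is given: 100% = DMSO vehicle control viability.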

## COc1cc(C2c3cc4c(cc3C(OC3OC5COC(C)OC5C(O)C3O)C3COC(=O)C23)OCO4)cc(OC)c1O (stereo not drawn) + COC1C(OC(N)=O)C(O)C(Oc2ccc3c(O)c(NC(=O)c4ccc(O)c(CC=C(C)C)c4)c(=O)oc3c2C)OC1(C)C
Second compound 0.0316 µM
  IC50: 727 nM
Second compound 0.1 µM
  IC50: 739 nM
Second compound 0.316 µM
  IC50: 659 nM
Second compound 1 µM
  IC50: 662 nM
Second compound 3.16 µM
  IC50: 560 nM
Second compound 10 µM
  IC50: 710 nM
[1]
  viability, T/C: 112%
[2]
  viability, T/C: 128%
[3]
  viability, T/C: 76.6%
[4]
  viability, T/C: 40.9%
[5]
  viability, T/C: 25.7%
[6]
  viability, T/C: 11.6%
[7]
  viability, T/C: 98.8%
[8]
  viability, T/C: 113%
[9]
  viability, T/C: 69.9%
[10]
  viability, T/C: 42.1%
[11]
  viability, T/C: 27.3%
[12]
  viability, T/C: 11.9%
[13]
  viability, T/C: 114%
[14]
  viability, T/C: 116%
[15]
  viability, T/C: 67.9%
[16]
  viability, T/C: 39.7%
[17]
  viability, T/C: 24.6%
[18]
  viability, T/C: 11.8%
[19]
  viability, T/C: 118%
[20]
  viability, T/C: 120%
[21]
  viability, T/C: 65.3%
[22]
  viability, T/C: 42.3%
[23]
  viability, T/C: 25.5%
[24]
  viability, T/C: 12.4%
[25]
  viability, T/C: 113%
[26]
  viability, T/C: 124%
[27]
  viability, T/C: 65.1%
[28]
  viability, T/C: 37.6%
[29]
  viability, T/C: 25.3%
[30]
  viability, T/C: 11.3%
[31]
  viability, T/C: 120%
[32]
  viability, T/C: 110%
[33]
  viability, T/C: 69.6%
[34]
  viability, T/C: 40.3%
[35]
  viability, T/C: 26.8%
[36]
  viability, T/C: 11.8%

## O=c1[nH]cc(F)c(=O)[nH]1 + Nc1ccc(C#CCN(C(=O)Cc2ncc(C(F)(F)F)cc2C(F)(F)F)c2ccc(F)cc2)nn1
Second compound 0.0316 µM
  IC50: > 10000 nM
Second compound 0.1 µM
  IC50: > 10000 nM
Second compound 0.316 µM
  IC50: > 10000 nM
Second compound 1 µM
  IC50: > 10000 nM
Second compound 3.16 µM
  IC50: > 10000 nM
Second compound 10 µM
  IC50: > 10000 nM
[1]
  viability, T/C: 102%
[2]
  viability, T/C: 94.3%
[3]
  viability, T/C: 103%
[4]
  viability, T/C: 102%
[5]
  viability, T/C: 97.4%
[6]
  viability, T/C: 64.8%
[7]
  viability, T/C: 97.7%
[8]
  viability, T/C: 112%
[9]
  viability, T/C: 97.4%
[10]
  viability, T/C: 107%
[11]
  viability, T/C: 103%
[12]
  viability, T/C: 67.3%
[13]
  viability, T/C: 95.9%
[14]
  viability, T/C: 103%
[15]
  viability, T/C: 101%
[16]
  viability, T/C: 88.3%
[17]
  viability, T/C: 97.3%
[18]
  viability, T/C: 65.6%
[19]
  viability, T/C: 98.8%
[20]
  viability, T/C: 92.6%
[21]
  viability, T/C: 109%
[22]
  viability, T/C: 87.6%
[23]
  viability, T/C: 107%
[24]
  viability, T/C: 63.1%
[25]
  viability, T/C: 103%
[26]
  viability, T/C: 96.5%
[27]
  viability, T/C: 109%
[28]
  viability, T/C: 106%
[29]
  viability, T/C: 104%
[30]
  viability, T/C: 61%
[31]
  viability, T/C: 109%
[32]
  viability, T/C: 106%
[33]
  viability, T/C: 101%
[34]
  viability, T/C: 102%
[35]
  viability, T/C: 90.6%
[36]
  viability, T/C: 52.4%

## CCc1c2c(nc3ccc(O)cc13)-c1cc3c(c(=O)n1C2)COC(=O)[C@]3(O)CC + Cc1cccc(N(C)C(=O)C2C(O)CCN2c2nc(C)cc(C(F)(F)F)c2C#N)c1
Second compound 0.0316 µM
  IC50: 9.32 nM
Second compound 0.1 µM
  IC50: 10.2 nM
Second compound 0.316 µM
  IC50: 10.8 nM
Second compound 1 µM
  IC50: 10.1 nM
Second compound 3.16 µM
  IC50: 9.58 nM
Second compound 10 µM
  IC50: 5.53 nM
Second compound 0.0316 µM, first compound 0.00316 µM
  viability, T/C: 69%
Second compound 0.0316 µM, first compound 0.01 µM
  viability, T/C: 48.5%
[1]
  viability, T/C: 27%
[2]
  viability, T/C: 12.7%
[3]
  viability, T/C: 10.5%
[4]
  viability, T/C: 7.92%
Second compound 0.1 µM, first compound 0.00316 µM
  viability, T/C: 74%
Second compound 0.1 µM, first compound 0.01 µM
  viability, T/C: 50.3%
[7]
  viability, T/C: 25.7%
[8]
  viability, T/C: 12.8%
[9]
  viability, T/C: 9.86%
[10]
  viability, T/C: 7.71%
Second compound 0.316 µM, first compound 0.00316 µM
  viability, T/C: 66.5%
Second compound 0.316 µM, first compound 0.01 µM
  viability, T/C: 51.6%
[13]
  viability, T/C: 27.9%
[14]
  viability, T/C: 13.8%
[15]
  viability, T/C: 9.55%
[16]
  viability, T/C: 8.34%
Second compound 1 µM, first compound 0.00316 µM
  viability, T/C: 73%
Second compound 1 µM, first compound 0.01 µM
  viability, T/C: 50.3%
[19]
  viability, T/C: 24%
[20]
  viability, T/C: 12.7%
[21]
  viability, T/C: 10.4%
[22]
  viability, T/C: 7.86%
Second compound 3.16 µM, first compound 0.00316 µM
  viability, T/C: 59.1%
Second compound 3.16 µM, first compound 0.01 µM
  viability, T/C: 50.1%
[25]
  viability, T/C: 24.3%
[26]
  viability, T/C: 12.1%
[27]
  viability, T/C: 9.42%
[28]
  viability, T/C: 6.8%
Second compound 10 µM, first compound 0.00316 µM
  viability, T/C: 58.6%
Second compound 10 µM, first compound 0.01 µM
  viability, T/C: 40.8%
[31]
  viability, T/C: 21%
[32]
  viability, T/C: 9.71%
[33]
  viability, T/C: 8.72%
[34]
  viability, T/C: 6.68%

## COc1ccc([C@@H](O)c2cc(-c3ncnc4cc(N5CCOCC5)ccc34)c(F)cc2Cl)nn1 + COC1C(OC(N)=O)C(O)C(Oc2ccc3c(O)c(NC(=O)c4ccc(O)c(CC=C(C)C)c4)c(=O)oc3c2C)OC1(C)C
Second compound 0.0316 µM
  IC50: 6300 nM
Second compound 0.1 µM
  IC50: 5610 nM
Second compound 0.316 µM
  IC50: 5550 nM
Second compound 1 µM
  IC50: 6160 nM
Second compound 3.16 µM
  IC50: 5340 nM
Second compound 10 µM
  IC50: 5670 nM
[1]
  viability, T/C: 102%
[2]
  viability, T/C: 97.2%
[3]
  viability, T/C: 109%
[4]
  viability, T/C: 95.2%
[5]
  viability, T/C: 79%
[6]
  viability, T/C: 30.7%
[7]
  viability, T/C: 103%
[8]
  viability, T/C: 92.2%
[9]
  viability, T/C: 106%
[10]
  viability, T/C: 99.2%
[11]
  viability, T/C: 72.6%
[12]
  viability, T/C: 27.1%
[13]
  viability, T/C: 102%
[14]
  viability, T/C: 108%
[15]
  viability, T/C: 108%
[16]
  viability, T/C: 110%
[17]
  viability, T/C: 71.1%
[18]
  viability, T/C: 27.9%
[19]
  viability, T/C: 90.9%
[20]
  viability, T/C: 101%
[21]
  viability, T/C: 113%
[22]
  viability, T/C: 110%
[23]
  viability, T/C: 78%
[24]
  viability, T/C: 29.7%
[25]
  viability, T/C: 106%
[26]
  viability, T/C: 103%
[27]
  viability, T/C: 108%
[28]
  viability, T/C: 116%
[29]
  viability, T/C: 70%
[30]
  viability, T/C: 26.1%
[31]
  viability, T/C: 108%
[32]
  viability, T/C: 101%
[33]
  viability, T/C: 109%
[34]
  viability, T/C: 101%
[35]
  viability, T/C: 72.6%
[36]
  viability, T/C: 28%
